# According to ChEMBL document CHEMBL4477208, “Discovery and Rational Design of Pteridin-7(8H)-one-Based Inhibitors Targeting FMS-like Tyrosine Kinase 3 (FLT3) and Its Mutants” (J Med Chem, 2016):
# Calls of active or inactive are those of the source. No cut-off for these calls is given here.
# Columns and labels:
# [1] = system: MV4-11; experiment: Cell cycle arrest in human MV4-11 cells assessed as accumulation at G0/G1 phase at 10 nM after 48 hrs by PI/RNase staining based FACS analysis (reference value: 69.55%); type: functional
# [2] = system: MV4-11; experiment: cells; settings: Homo sapiens, MV4-11, 72 h
# Description: Antiproliferative activity against human MV4-11 cells harboring FLT3-ITD mutant after 72 hrs by MTT assay
# [3] = system: MV4-11; experiment: Cell cycle arrest in human MV4-11 cells assessed as accumulation at G0/G1 phase after 48 hrs by PI/RNase staining based FACS analysis; type: functional
# [4] = system: MV4-11; experiment: Cell cycle arrest in human MV4-11 cells assessed as accumulation at G0/G1 phase at 1000 nM after 48 hrs by PI/RNase staining based FACS analysis (reference value: 69.55%); type: functional
# [5] = system: NCI-H1975; experiment: Antiproliferative activity against human NCI-H1975 cells after 72 hrs by SRB assay; type: functional, cell-based; settings: NCI-H1975, 72 h
# [6] = Volume of distribution at steady state in overnight fasted Sprague-Dawley rat plasma at 1 mg/kg, iv up to 24 hrs by LC-MS/MS analysis; type: ADME, organism-based; settings: read-out: Vdss
# [7] = system: MV4-11; experiment: Induction of apoptosis in human MV4-11 cells assessed as viable cells at 1 nM after 48 hrs by annexin V/propidium iodide staining based FACS analysis (reference value: 90.60%); type: functional; settings: MV4-11, 48 h, read-out: Activity
# [8] = system: Receptor-type tyrosine-protein kinase FLT3 (Homo sapiens), P36888 [UNDEFINED MUTATION]; experiment: Inhibition of human FLT3 ITD/D835V mutant expressed in mammalian system assessed as remaining enzyme activity at 1 uM relative to untreated control
# [9] = system: MV4-11; experiment: Antiproliferative activity against human MV4-11 cells after 72 hrs by MTT assay; type: functional, cell-based; settings: MV4-11, 72 h
# [10] = system: A549; experiment: Antiproliferative activity against human A549 cells after 72 hrs by SRB assay; type: functional, cell-based; settings: A549, 72 h
# [11] = system: Receptor-type tyrosine-protein kinase FLT3 (Homo sapiens), P36888 [UNDEFINED MUTATION]; experiment: Inhibition of human FLT3 ITD mutant expressed in bacterial system assessed as remaining enzyme activity at 1 uM relative to untreated control
# [12] = target: Receptor-type tyrosine-protein kinase FLT3 (Homo sapiens) (UniProt P36888); experiment: Inhibition of human FLT3 expressed in bacterial system assessed as remaining enzyme activity at 1 uM relative to untreated control
# [13] = system: DMS-79; experiment: Antiproliferative activity against human DMS79 cells after 72 hrs by MTT assay; type: functional, cell-based; settings: DMS-79, 72 h
# [14] = system: MV4-11; experiment: Antitumor activity against human MV4-11 cells xenografted in nude BALB/c mouse assessed as tumor growth inhibition administered orally qd for 14 days measured every 2 days; type: functional
# [15] = target: Receptor-type tyrosine-protein kinase FLT3 (Homo sapiens, UniProt P36888, D835V/ITD); experiment: Binding affinity to human partial length FLT3 ITD/D835V mutant expressed in mammalian expression system after 1 hr
# [16] = Oral bioavailability in overnight fasted Sprague-Dawley rat plasma at 10 mg/kg administered via oral gavage up to 24 hrs by LC-MS/MS analysis; type: ADME, organism-based
# [17] = system: MV4-11; experiment: Induction of apoptosis in human MV4-11 cells assessed as late apoptotic cells at 10000 nM after 48 hrs by annexin V/propidium iodide staining based FACS analysis (reference value: 3.01%); type: functional
# [18] = system: MV4-11; experiment: Induction of apoptosis in human MV4-11 cells assessed as late apoptotic cells at 1000 nM after 48 hrs by annexin V/propidium iodide staining based FACS analysis (reference value: 3.01%); type: functional
# [19] = AUC (0 to infinity) in overnight fasted Sprague-Dawley rat plasma at 10 mg/kg administered via oral gavage up to 24 hrs by LC-MS/MS analysis; type: ADME, organism-based; set-up: dose 10 mg/kg, route oral, time infinity
# [20] = system: SW-620; experiment: Antiproliferative activity against human SW620 cells after 72 hrs by SRB assay; type: functional, cell-based; settings: SW-620, 72 h
# [21] = target: Tyrosine-protein kinase JAK1 (Homo sapiens) (UniProt P23458); experiment: Inhibition of human JAK1 expressed in mammalian or bacterial system assessed as remaining enzyme activity at 1 uM relative to untreated control
# Tyrosine-protein kinase JAK1 (Homo sapiens), sequence (P23458 whole entry): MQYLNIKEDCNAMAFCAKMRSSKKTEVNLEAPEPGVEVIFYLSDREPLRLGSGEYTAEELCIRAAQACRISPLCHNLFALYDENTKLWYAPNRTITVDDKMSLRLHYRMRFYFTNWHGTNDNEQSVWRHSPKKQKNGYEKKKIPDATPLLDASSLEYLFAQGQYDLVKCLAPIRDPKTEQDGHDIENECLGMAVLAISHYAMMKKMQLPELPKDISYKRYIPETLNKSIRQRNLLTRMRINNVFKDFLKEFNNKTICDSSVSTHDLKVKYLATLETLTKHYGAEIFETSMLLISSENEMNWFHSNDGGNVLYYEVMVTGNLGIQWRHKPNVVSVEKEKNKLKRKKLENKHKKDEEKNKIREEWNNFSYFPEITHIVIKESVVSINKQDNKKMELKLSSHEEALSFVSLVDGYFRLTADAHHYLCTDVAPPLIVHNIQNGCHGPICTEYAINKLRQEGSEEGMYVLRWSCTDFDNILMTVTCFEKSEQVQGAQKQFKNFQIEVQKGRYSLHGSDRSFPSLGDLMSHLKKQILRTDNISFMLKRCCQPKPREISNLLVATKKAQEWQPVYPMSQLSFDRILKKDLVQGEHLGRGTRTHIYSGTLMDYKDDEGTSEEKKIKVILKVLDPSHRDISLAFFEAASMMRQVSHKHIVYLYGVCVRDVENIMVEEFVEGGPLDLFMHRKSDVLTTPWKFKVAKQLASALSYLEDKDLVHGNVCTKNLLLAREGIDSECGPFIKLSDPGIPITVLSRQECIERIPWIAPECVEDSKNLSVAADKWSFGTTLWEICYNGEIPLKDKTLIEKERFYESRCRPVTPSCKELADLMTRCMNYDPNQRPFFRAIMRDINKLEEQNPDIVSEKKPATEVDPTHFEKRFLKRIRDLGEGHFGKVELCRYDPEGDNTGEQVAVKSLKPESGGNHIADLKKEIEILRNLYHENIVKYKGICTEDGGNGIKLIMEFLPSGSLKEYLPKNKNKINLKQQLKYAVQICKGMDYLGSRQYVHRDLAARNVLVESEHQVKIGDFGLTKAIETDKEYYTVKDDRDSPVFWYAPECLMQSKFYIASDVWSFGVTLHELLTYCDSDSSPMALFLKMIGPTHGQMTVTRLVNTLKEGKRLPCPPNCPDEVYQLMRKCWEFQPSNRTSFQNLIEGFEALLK
# [22] = system: MV4-11; experiment: Antitumor activity against human MV4-11 cells xenografted in nude BALB/c mouse assessed as tumor growth inhibition at 25 mg/kg, po qd for 14 days measured every 2 days; type: functional; settings: MV4-11, po, read-out: TGI
# [23] = system: MV4-11; experiment: Induction of apoptosis in human MV4-11 cells assessed as necrotic cells at 100 nM after 48 hrs by annexin V/propidium iodide staining based FACS analysis (reference value: 0.05%); type: functional
# [24] = system: MV4-11; experiment: Antitumor activity against human MV4-11 cells xenografted in nude BALB/c mouse assessed as reduction in tumor cell proliferation by measuring Ki67 positive cells at 50 mg/kg, po qd measured after 1 to 3 days by immunohistochemical assay; type: functional, organism-based
# [25] = system: MOLT-4; experiment: Antiproliferative activity against human MOLT4 cells after 72 hrs by MTT assay; type: functional, cell-based; settings: MOLT-4, 72 h
# [26] = system: MV4-11; experiment: Cell cycle arrest in human MV4-11 cells assessed as cell debris level at 100 nM after 48 hrs by PI/RNase staining based FACS analysis; type: functional
# [27] = target: Macrophage colony-stimulating factor 1 receptor (Homo sapiens) (UniProt P07333); experiment: Inhibition of human CSF1R expressed in bacterial system assessed as remaining enzyme activity at 1 uM relative to untreated control
# Macrophage colony-stimulating factor 1 receptor (Homo sapiens), sequence (P07333 whole entry): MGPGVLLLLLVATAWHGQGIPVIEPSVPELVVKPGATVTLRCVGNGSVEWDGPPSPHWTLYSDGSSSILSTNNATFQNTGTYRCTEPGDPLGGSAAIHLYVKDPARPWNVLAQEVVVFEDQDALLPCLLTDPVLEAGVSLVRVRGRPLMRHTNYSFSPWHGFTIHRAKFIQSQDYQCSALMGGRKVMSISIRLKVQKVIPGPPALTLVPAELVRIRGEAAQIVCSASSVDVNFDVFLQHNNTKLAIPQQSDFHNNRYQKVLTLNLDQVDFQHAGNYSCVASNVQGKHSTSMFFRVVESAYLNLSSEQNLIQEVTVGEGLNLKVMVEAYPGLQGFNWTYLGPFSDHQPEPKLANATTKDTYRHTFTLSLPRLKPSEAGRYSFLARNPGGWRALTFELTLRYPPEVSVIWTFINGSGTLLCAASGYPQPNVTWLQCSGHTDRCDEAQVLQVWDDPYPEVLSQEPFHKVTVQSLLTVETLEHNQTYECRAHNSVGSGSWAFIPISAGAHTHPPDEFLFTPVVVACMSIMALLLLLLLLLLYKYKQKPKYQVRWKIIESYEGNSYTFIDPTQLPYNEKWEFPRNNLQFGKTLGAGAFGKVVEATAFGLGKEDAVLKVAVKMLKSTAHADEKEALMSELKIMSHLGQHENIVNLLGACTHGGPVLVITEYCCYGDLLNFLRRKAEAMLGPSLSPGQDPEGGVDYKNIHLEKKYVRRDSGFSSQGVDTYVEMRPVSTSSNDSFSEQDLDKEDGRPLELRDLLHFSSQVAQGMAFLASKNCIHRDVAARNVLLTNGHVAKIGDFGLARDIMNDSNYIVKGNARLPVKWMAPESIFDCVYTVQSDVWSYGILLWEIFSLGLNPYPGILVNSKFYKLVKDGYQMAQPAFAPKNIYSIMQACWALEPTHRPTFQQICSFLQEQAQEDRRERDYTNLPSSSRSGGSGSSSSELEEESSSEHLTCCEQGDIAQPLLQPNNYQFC
# [28] = system: MV4-11; experiment: Cell cycle arrest in human MV4-11 cells assessed as accumulation at G0/G1 phase at 1 nM after 48 hrs by PI/RNase staining based FACS analysis (reference value: 69.55%); type: functional
# [29] = Half life in overnight fasted Sprague-Dawley rat plasma at 10 mg/kg administered via oral gavage up to 24 hrs by LC-MS/MS analysis; type: ADME, organism-based
# [30] = system: HT-29; experiment: Antiproliferative activity against human HT-29 cells after 72 hrs by SRB assay; type: functional, cell-based; settings: HT-29, 72 h
# [31] = system: MV4-11; experiment: Induction of apoptosis in human MV4-11 cells assessed as late apoptotic cells at 100 nM after 48 hrs by annexin V/propidium iodide staining based FACS analysis (reference value: 3.01%); type: functional
# [32] = system: MV4-11; experiment: Induction of apoptosis in human MV4-11 cells assessed as early apoptotic cells at 10 nM after 48 hrs by annexin V/propidium iodide staining based FACS analysis (reference value: 6.31%); type: functional
# [33] = system: MV4-11; experiment: animal or person; settings: Mus musculus, MV4-11, po, read-out: TGI
# Description: Antitumor activity against human MV4-11 cells xenografted in nude BALB/c mouse assessed as tumor growth inhibition at 10 mg/kg, po qd for 14 days measured every 2 days
# [34] = system: MV4-11; experiment: Induction of apoptosis in human MV4-11 cells assessed as viable cells at 100 nM after 48 hrs by annexin V/propidium iodide staining based FACS analysis (reference value: 90.60%); type: functional; settings: MV4-11, 48 h, read-out: Activity
# [35] = system: MV4-11; experiment: Induction of apoptosis in human MV4-11 cells assessed as viable cells at 1000 nM after 48 hrs by annexin V/propidium iodide staining based FACS analysis (reference value: 90.60%); type: functional; settings: MV4-11, 48 h, read-out: Activity
# [36] = system: HCT-116; experiment: Antiproliferative activity against human HCT116 cells after 72 hrs by SRB assay; type: functional, cell-based; settings: HCT-116, 72 h
# [37] = system: MV4-11; experiment: Induction of apoptosis in human MV4-11 cells assessed as apoptotic cells after 48 hrs by annexin V/propidium iodide staining based FACS analysis; type: functional, cell-based
smiles,measurement,setting,value
Cc1cc(Nc2ncc3ncc(=O)n(-c4ccc(N)cc4)c3n2)ccc1N1CCN(C)CC1,Activity,[1],70.2%
same,IC50,[2],51 nM
same,Activity,[3],Dose-dependent effect
same,Activity,[4],80.55%
same,IC50,[5],4460 nM
same,Vd,[6],27.7 L/kg
same,viability at 0.001 µM,[7],90.3%
same,Activity,[8],< 1%
same,IC50,[9],51 nM
same,IC50,[10],> 10000 nM
same,Activity,[11],< 1%
same,Activity,[12],< 1%
same,IC50,[13],> 10000 nM
same,TGI,[14],Dose-dependent effect
same,Kd,[15],0.79 nM
same,bioavailability,[16],26.4%
same,Activity,[17],31.3%
same,Activity,[18],34.3%
same,AUC(0-inf),[19],311 ng·h/mL
same,IC50,[20],2530 nM
same,Activity,[21],< 1%
same,inhibition in vivo at 25 mg/kg,[22],87%
same,Activity,[23],0.25%
same,Activity,[24],Active
same,IC50,[25],2120 nM
same,Activity,[26],12.02%
same,Activity,[27],< 1%
same,Activity,[28],65.64%
same,half-life,[29],4.49 h
same,IC50,[30],3020 nM
same,Activity,[31],16.4%
same,Activity,[32],9.71%
same,inhibition in vivo at 10 mg/kg,[33],28%
same,viability at 0.1 µM,[34],60.3%
same,viability at 1 µM,[35],27.3%
same,IC50,[36],2360 nM
same,Activity,[37],Dose-dependent effect
